1 compound from BindingDB's records for doi:10.1021/jm00076a021 (New York University, 1994) can be followed below.

A short description of this test: Binding affinity against sigma receptor in bovine cerebellum using 2.0 nM [3H]haloperidol in the presence of 25 nM unlabeled spiperone.

SMILES strings stand for the structures.

As to `O=C(CCN1CC=C(c2ccc(Cl)cc2)CC1)c1ccccc1Cl` [1-(2-Chloro-phenyl)-3-[4-(4-chloro-phenyl)-3,6-dihydro-2H-pyridin-1-yl]-propan-1-one], the IC50 was determined as 105 nM.
